Results on one compound are retold here after publication PMC7703437, “In Vitro Hepatic Metabolism of Curcumin Diethyl Disuccinate by Liver S9 from Different Animal Species” (Frontiers in Pharmacology, 2020).

Data set [1] is described as follows: In vitro metabolism profiling of CDD in rat liver S9 (1 mg/ml). The class given is in vitro ADME, rat (Sprague–Dawley). Particulars: Sprague-Dawley, liver S9; rat LS9 1 mg/ml; read-out: t 1/2 (CDD). The protocol:
(§1) The metabolism profiles of CDD were investigated against HLS9, MLS9, DLS9, and RLS9. A stock solution of CDD was prepared at 150 µM in 50% acetonitrile in water before use. The metabolism study was initiated by spiking 735 µl of preincubated LS9 with 15 µl of CDD stock solution, and the mixture was subsequently incubated at 37°C. The final concentrations of CDD and LS9 were 3 μM and 1 mg/ml, respectively. A 50-µl aliquot from the mixture was collected at 0.5, 1, 2, 3, 4, 5, 10, 15, 30, 45, 60, 90, and 120 min and immediately mixed with 100 µl of ice-cold acetonitrile containing 0.45 µM of internal standard DMC to terminate the metabolic reaction. […] The sample at the initial time point (0 min) was prepared as the other samples, except that heat-inactivated HLS9, MLS9, DLS9, and RLS9 (80°C for 20 min; 1 mg/ml protein) were used.
(§2) The UHPLC system consisted of an Agilent series 1290 quaternary pump with an online degasser, autosampler, column oven, and diode array detector. The mobile phase was composed of (A) 0.1% (v/v) formic acid in acetonitrile and (B) 0.1% (v/v) formic acid in water. Each solution was filtered through a nylon filter (pore size, 0.22 µm; MS® Membrane Filters; Membrane Solutions, United States) before use. The mobile phase flow rate was kept at 1.2 ml/min in a gradient mode using the following elution program: 0–3.0 min, initial A-B (40:60, v/v); 4.5–7.0 min, isocratic elution A-B [50:50, (v/v); 8.5–11.0 min, isocratic elution A-B (60:40, v/v); and 12.0–17.0 min, isocratic elution A-B (40:60, v/v)]. CDD, curcumin, and MSCUR in the supernatant were partitioned using a C8 column (4.6 mm × 50 mm, 2.7 µm; HALO, Advanced Materials Technology, United States) with reference to DMC. The detection wavelength was set at 400 nm (λ max(CDD) = 400 nm, λ max(curcumin) = 427 nm, λ max(MSCUR) = 418 nm, and λ max(DMC) = 421 nm). The column was maintained at 35°C throughout the run, and the supernatant injection volume was set at 20 µl.
(§3) The concentrations of CDD, curcumin, and MSCUR in the supernatant were determined from the standard plots, which were prepared by spiking individual working solutions of the compounds to heat-inactivated HLS9, MLS9, DLS9, and RLS9 ([Alcorn et al., 2007]; [Montoro-Garcia et al., 2009]; [Singh et al., 2010]). These working standards were extracted with 100 µl of ice-cold acetonitrile containing 0.45 µM of DMC and then 120 μl of the supernatant was diluted with 40 μl of water prior to the UHPLC analysis. The peak area ratios of CDD, curcumin, and MSCUR to the internal standard were computed against linear concentration ranges of 0.025–4.5 µM CDD, 0.025–4.5 µM curcumin, and 0.0125–0.75 µM MSCUR, respectively, with the coefficient of determination (r^2) values greater than 0.99.
(§4) The percent content of CDD and the metabolites formed upon its incubation with LS9, namely, curcumin and MSCUR, was plotted against incubation time.
(§5) The following equations were adopted to describe the changes in CDD and MSCUR content over time (t): A = A0e^−k1t (2) B= k1A0/k2−k1(e^−k1t−e^−k2t), (3) where A0 is the CDD concentration at time 0, k 1 is the degradation rate constant of CDD, and k 2 is the degradation rate constant of MSCUR. k 1 and k 2 were determined by using Eqs. 2 and 3, respectively, with nonlinear regression analysis using the SOLVER function of Microsoft Excel for Office 365 MSO (16.0.12527.20986) ([Brown, 2001]). The half-life (t 1/2) was calculated using Eq. 4: t1/2=0.693/k (4)
(§6) The in vitro intrinsic clearance (CLint,in vitro) of CDD and MSCUR in LS9 was calculated using Eq. 5: CLint, in vitro= k × [V]incubation(ml)/[P]incubation(mg protein), (5) where [V]incubation is the incubation volume in ml, and [P]incubation is the amount of LS9. […]

Data set [2] relates to rat LS9 (RLS9; Sprague–Dawley). Described as above. The class given is in vitro ADME. The protocol:
as §1, §2, §3, §4, §5, §6

Details of data set [3]: method as in Muangnoi et al., 2019b. To be noted: ref Muangnoi et al., 2019b; cited from earlier work.
A short description of data set [4]: In vitro metabolism profiling of CDD in human liver S9 (1 mg/ml). It counts as in vitro ADME. To be noted: pooled liver S9; human LS9 1 mg/ml; read-out: t 1/2 (CDD). On the procedure: as §1, §2, §3, §4, §5, §6
The test system of data set [5] is human LS9 (HLS9; pooled). The data set is described as above. It counts as in vitro ADME. The protocol:
as §1, §2, §3, §4, §5, §6

`CCOC(=O)CCC(=O)Oc1ccc(/C=C/C(=O)/C=C(O)/C=C/c2ccc(OC(=O)CCC(=O)OCC)c(OC)c2)cc1OC` [CDD, curcumin diethyl disuccinate]: the half-life at 3 µM in data set [1] amounted to 62.4 ± 10.8 s. The “CLint, in vitro(CDD)” value in data set [2] (rat LS9) was 0.68 ± 0.13 ml min^−1 mg protein^−1; in data set [5] (human LS9), 1.51 ± 0.22 ml min^−1 mg protein^−1. Moreover, the “k 1 (CDD)” value turned out to be 0.68 ± 0.13 min⁻¹ in data set [2] (rat LS9 1 mg/ml, CDD 3 µM, 37°C) and 1.51 ± 0.22 min⁻¹ in data set [5] (human LS9 1 mg/ml, CDD 3 µM, 37°C). The “CLint, in vivo(CDD)” value in data set [2] (rat, scaled from CLint,in vitro with physiologically based scaling factors) amounted to 197.51 ± 37.52 L/h/kg; in data set [5] (human, scaled from CLint,in vitro with physiologically based scaling factors), 282.18 ± 41.74 L/h/kg. Also, the “CLint, in vivo total” value in data set [2] (rat, sum of CLint,in vivo(CDD) and CLint,in vivo(MSCUR)) was 3,002.88 ± 180.63 L h^−1 kg^−1; in data set [5] (human, sum of CLint,in vivo(CDD) and CLint,in vivo(MSCUR)), 2,533.38 ± 124.30 L h^−1 kg^−1. Besides, the “CLH (predicted hepatic clearance)” value is recorded as 4.10 ± 5.77 × 10^–3 L h^−1 kg^−1 in data set [2] (rat, well-stirred model, QH 70 ml min^−1 kg^−1, fup 0.0594) and 1.19 ± 4.61 × 10^–4 L h^−1 kg^−1 in data set [5] (human, well-stirred model, QH 20 ml min^−1 kg^−1, fup 0.0594). Besides, in data set [3], the “log P” value is given as 2.55. In addition, the half-life in data set [4] stood at 27.6 ± 3.6 s. Also, the “CLint, in vitro(CDD) in HLS9 higher than in DLS9” value in data set [5] (HLS9 vs DLS9) turned out to be 1.8 fold. In data set [5] (HLS9 vs MLS9), the “CLint, in vitro(CDD) in HLS9 higher than in MLS9” value stood at 1.9 fold. Also, the “CLint, in vitro(CDD) in HLS9 higher than in RLS9” value in data set [5] (HLS9 vs RLS9) is 2.2 fold.
